Activity calls are given as the source filed them. The rule behind the calls is not given here.
What was measured:
[1] = tested on: Listeria monocytogenes; test: Antibacterial activity against Listeria monocytogenes ATCC 19115 at 0.25 ug/ml after 24 hr by agar well diffusion method; format: functional
[2] = tested on: Brucella abortus; test: Antibacterial activity against Brucella abortus RSKK-03026 at 0.25 ug/ml after 24 hr by agar well diffusion method; format: functional; conditions: RSKK-03026, 24 h, read-out: DIZ
[3] = tested on: Shigella boydii; test: Antibacterial activity against Shigella boydii type 11 at 0.25 ug/ml after 24 hr by agar well diffusion method; format: functional; conditions: type 11, 24 h, read-out: DIZ
[4] = tested on: Staphylococcus aureus; test: Antibacterial activity against Staphylococcus aureus ATCC 25923 at 0.25 ug/ml after 24 hr by agar well diffusion method; format: functional; conditions: ATCC 25923, 24 h, read-out: DIZ
[5] = tested on: Proteus; test: Antibacterial activity against Proteus OX2 Wrah at 0.25 ug/ml after 24 hr by agar well diffusion method; format: functional
[6] = tested on: Pseudomonas putida; test: Antibacterial activity against Pseudomonas putida at 0.25 ug/ml after 24 hr by agar well diffusion method; format: functional
[7] = tested on: Shigella boydii; test: Antibacterial activity against Shigella boydii type 16 at 0.25 ug/ml after 24 hr by agar well diffusion method; format: functional; conditions: type 16, 24 h, read-out: DIZ
[8] = tested on: Escherichia coli; test: Antibacterial activity against Escherichia coli ATCC 1280 at 0.25 ug/ml after 24 hr by agar well diffusion method; format: functional; conditions: ATCC 1280, 24 h, read-out: DIZ
[9] = tested on: Salmonella typhimurium; test: Antibacterial activity against Salmonella enterica subsp. enterica serovar Typhi H NCTC 901.8394 at 0.25 ug/ml after 24 hr by agar well diffusion method; format: functional; conditions: H NCTC 901.8394, 24 h, read-out: DIZ
[10] = tested on: Candida albicans; test: Antifungal activity against Candida albicans Y-1200-NIH at 0.25 ug/ml after 24 hr by agar well diffusion method; format: functional; conditions: read-out: DIZ
[11] = tested on: Shigella boydii; test: Antibacterial activity against Shigella boydii type 6 RSKK-96043 at 0.25 ug/ml after 24 hr by agar well diffusion method; format: functional; conditions: type 6 RSKK-96043, 24 h, read-out: DIZ
[12] = tested on: Shigella boydii; test: Antibacterial activity against Shigella boydii type 11 at 30 ug after 24 hr by agar well diffusion method; format: functional; conditions: type 11, 24 h, read-out: DIZ
[13] = tested on: Proteus; test: Antibacterial activity against Proteus OX2 Wrah at 30 ug after 24 hr by agar well diffusion method; format: functional; conditions: read-out: DIZ
[14] = tested on: Pseudomonas putida; test: Antibacterial activity against Pseudomonas putida at 30 ug after 24 hr by agar well diffusion method; format: functional; conditions: read-out: DIZ
[15] = tested on: Escherichia coli; test: Antibacterial activity against Escherichia coli ATCC 1280 at 30 ug after 24 hr by agar well diffusion method; format: functional; conditions: ATCC 1280, 24 h, read-out: DIZ
[16] = tested on: Shigella boydii; test: Antibacterial activity against Shigella boydii type 16 at 30 ug after 24 hr by agar well diffusion method; format: functional; conditions: type 16, 24 h, read-out: DIZ
[17] = tested on: Salmonella typhimurium; test: Antibacterial activity against Salmonella enterica subsp. enterica serovar Typhi H NCTC 901.8394 at 30 ug after 24 hr by agar well diffusion method; format: functional; conditions: H NCTC 901.8394, 24 h, read-out: DIZ
[18] = tested on: Shigella boydii; test: Antibacterial activity against Shigella boydii type 6 RSKK-96043 at 30 ug after 24 hr by agar well diffusion method; format: functional; conditions: type 6 RSKK-96043, 24 h, read-out: DIZ
[19] = tested on: Listeria monocytogenes; test: Antibacterial activity against Listeria monocytogenes ATCC 19115 at 30 ug after 24 hr by agar well diffusion method; format: functional; conditions: ATCC 19115, 24 h, read-out: DIZ
[20] = tested on: Staphylococcus aureus; test: Antibacterial activity against Staphylococcus aureus ATCC 25923 at 30 ug after 24 hr by agar well diffusion method; format: functional; conditions: ATCC 25923, 24 h, read-out: DIZ
[21] = tested on: Shigella boydii; test: Antibacterial activity against Shigella boydii type 16 at 25 ug after 24 hr by agar well diffusion method; format: functional; conditions: type 16, 24 h, read-out: DIZ
[22] = tested on: Listeria monocytogenes; test: Antibacterial activity against Listeria monocytogenes ATCC 19115 at 25 ug after 24 hr by agar well diffusion method; format: functional; conditions: ATCC 19115, 24 h, read-out: DIZ
[23] = tested on: Staphylococcus aureus; test: Antibacterial activity against Staphylococcus aureus ATCC 25923 at 25 ug after 24 hr by agar well diffusion method; format: functional; conditions: ATCC 25923, 24 h, read-out: DIZ
[24] = tested on: Salmonella typhimurium; test: Antibacterial activity against Salmonella enterica subsp. enterica serovar Typhi H NCTC 901.8394 at 25 ug after 24 hr by agar well diffusion method; format: functional; conditions: H NCTC 901.8394, 24 h, read-out: DIZ
[25] = tested on: Shigella boydii; test: Antibacterial activity against Shigella boydii type 11 at 25 ug after 24 hr by agar well diffusion method; format: functional; conditions: type 11, 24 h, read-out: DIZ
[26] = tested on: Shigella boydii; test: Antibacterial activity against Shigella boydii type 6 RSKK-96043 at 25 ug after 24 hr by agar well diffusion method; format: functional; conditions: type 6 RSKK-96043, 24 h, read-out: DIZ
[27] = tested on: Escherichia coli; test: microbe, parasite or virus in culture; conditions: ATCC 1280, 24 h, read-out: DIZ
[28] = tested on: Pseudomonas putida; test: Antibacterial activity against Pseudomonas putida at 25 ug after 24 hr by agar well diffusion method; format: functional; conditions: read-out: DIZ
[29] = tested on: Proteus; test: Antibacterial activity against Proteus OX2 Wrah at 25 ug after 24 hr by agar well diffusion method; format: functional; conditions: read-out: DIZ

CCOC(=O)c1c(/N=C/c2c(O)ccc3ccccc23)sc2c1CCCCC2
diameter of the inhibition zone (DIZ) [1]: inactive | zone of inhibition at 0.25 µg/mL [2]: 5 mm | zone of inhibition at 0.25 µg/mL [3]: 8 mm | zone of inhibition at 0.25 µg/mL [4]: 9 mm | diameter of the inhibition zone (DIZ) [5]: inactive | diameter of the inhibition zone (DIZ) [6]: inactive | zone of inhibition at 0.25 µg/mL [7]: 8 mm | zone of inhibition at 0.25 µg/mL [8]: 9 mm | zone of inhibition at 0.25 µg/mL [9]: 8 mm | zone of inhibition at 0.25 µg/mL [10]: 11 mm | zone of inhibition at 0.25 µg/mL [11]: 7 mm

NC[C@H]1O[C@H](O[C@H]2[C@H](O)[C@@H](O[C@H]3O[C@H](CO)[C@@H](O)[C@H](N)[C@H]3O)[C@H](N)C[C@@H]2N)[C@H](O)[C@@H](O)[C@@H]1O [KANAMYCIN]
zone of inhibition at 30 µg/disc [12]: 14 mm | zone of inhibition at 30 µg/disc [13]: 25 mm | zone of inhibition at 30 µg/disc [14]: 14 mm | zone of inhibition at 30 µg/disc [15]: 25 mm | zone of inhibition at 30 µg/disc [16]: 16 mm | zone of inhibition at 30 µg/disc [17]: 20 mm | zone of inhibition at 30 µg/disc [18]: 15 mm | zone of inhibition at 30 µg/disc [19]: 15 mm | zone of inhibition at 30 µg/disc [20]: 25 mm

Cc1cc(NS(=O)(=O)c2ccc(N)cc2)no1 [SULFAMETHOXAZOLE]
zone of inhibition at 25 µg/disc [21]: 20 mm | zone of inhibition at 25 µg/disc [22]: 11 mm | zone of inhibition at 25 µg/disc [23]: 24 mm | zone of inhibition at 25 µg/disc [24]: 17 mm | zone of inhibition at 25 µg/disc [25]: 19 mm | zone of inhibition at 25 µg/disc [26]: 20 mm | zone of inhibition at 25 µg/disc [27]: 18 mm | zone of inhibition at 25 µg/disc [28]: 18 mm | zone of inhibition at 25 µg/disc [29]: 20 mm

CC1(C)S[C@@H]2[C@H](NC(=O)[C@H](N)c3ccc(O)cc3)C(=O)N2[C@H]1C(=O)O [AMOXICILLIN]
zone of inhibition at 30 µg/disc [12]: 24 mm | zone of inhibition at 30 µg/disc [13]: 17 mm | zone of inhibition at 30 µg/disc [14]: 15 mm | zone of inhibition at 30 µg/disc [15]: 14 mm | zone of inhibition at 30 µg/disc [16]: 14 mm | zone of inhibition at 30 µg/disc [17]: 19 mm | zone of inhibition at 30 µg/disc [18]: 19 mm | zone of inhibition at 30 µg/disc [19]: 22 mm | zone of inhibition at 30 µg/disc [20]: 30 mm
